For assay [1], the target named is T1, rat-species vanilloid receptor 1 (VR1/TRPV1) (Rattus norvegicus, UniProt O35433).
T1 construct: endogenous in cells; host or cells: primary cells dissociated from rat dorsal root ganglia (DRG)
In words: Functional testing on vanilloid receptor 1 (VR1/TRPV1): FLIPR Ca2+ inflow assay in rat dorsal root ganglia cells (% activation / % inhibition vs capsaicin). The class given is cell-based. The following applies: for inhibition at 10 µM: inhibition compared to 10 μM CP (capsaicin); for activation at 10 µM: stimulation compared to 10 μM CP (capsaicin); for IC50: capsaicin (CAP) stimulus, average. How it is done:
Preference may also be given to substituted spiro compounds according to the invention of general formula I which in a FLIPR assay in a concentration of 10 μM display inhibition of the Ca^2+ ion inflow in dorsal root ganglia of rats of at least 30%, preferably of at least 40%, particularly preferably of at least 50%, most particularly preferably of at least 70%, even more preferably of at least 90%, compared to the maximum achievable inhibition of the Ca^2+ ion inflow with capsaicin in a concentration of 10 μM.
In the FLIPR assay, the Ca^2+ inflow is quantified using a Ca^2+-sensitive dye (type Fluo-4, Molecular Probes Europe BV, Leiden, Netherlands) in a fluorescent imaging plate reader (FLIPR, Molecular Devices, Sunnyvale, USA), as described hereinafter.
I. Functional Testing Carried Out on the Vanilloid Receptor 1 (VR1/TRPV1 Receptor)
The agonistic or antagonistic effect of the substances to be tested can be determined on the rat-species vanilloid receptor 1 (VR1/TRPV1) using the following assay. According to this assay, the Ca^2+ inflow is quantified through the receptor channel using a Ca^2+-sensitive dye (type Fluo-4, Molecular Probes Europe BV, Leiden, Netherlands) in a fluorescent imaging plate reader (FLIPR, Molecular Devices, Sunnyvale, USA).
Complete medium: 50 mL HAMS F12 nutrient mixture (Gibco Invitrogen GmbH, Karlsruhe, Germany) with
10% by volume of FCS (foetal calf serum, Gibco Invitrogen GmbH, Karlsruhe, Germany, […]);
2 mM L-glutamine (Sigma, Munich, Germany);
1% by weight of AA solution (antibiotic/antimyotic solution, PAA, Pasching, Austria)
and 25 ng/ml NGF medium (2.5 S, Gibco Invitrogen GmbH, Karlsruhe, Germany)
Cell culture plate: Poly-D-lysine-coated, black 96 well plates having a clear base (96 well black/clear plate, BD Biosciences, Heidelberg, Germany) were additionally coated with laminin (Gibco Invitrogen GmbH, Karlsruhe, Germany), the laminin being diluted with PBS (Ca—Mg-free PBS, Gibco Invitrogen GmbH, Karlsruhe, Germany) to a concentration of 100 μg/mL. Aliquots having a laminin concentration of 100 μg/mL were removed and stored at −20° C. The aliquots were diluted with PBS in a ratio of 1:10 to 10 μg/mL laminin and in each case 50 μL of the solution were pipetted into a recess in the cell culture plate. The cell culture plates were incubated for at least two hours at 37° C., the excess solution was removed by suction-filtration and the recesses were each washed twice with PBS. The coated cell culture plates were stored with excess PBS which was not removed until just before the feeding of the cells.
Preparation of the Cells:
The vertebral column was removed from decapitated rats and placed immediately into cold HBSS buffer (Hank's buffered saline solution, Gibco Invitrogen GmbH, Karlsruhe, Germany), i.e. buffer located in an ice bath, mixed with 1% by volume (percent by volume) of an AA solution (antibiotic/antimyotic solution, PAA, Pasching, Austria). The vertebral column was cut longitudinally and removed together with fasciae from the vertebral canal. Subsequently, the dorsal root ganglia (DRG) were removed and again stored in cold HBSS buffer mixed with 1% by volume of an AA solution. The DRG, from which all blood remnants and spinal nerves had been removed, were transferred in each case to 500 μL of cold type 2 collagenase (PAA, Pasching, Austria) and incubated for 35 minutes at 37° C. After the addition of 2.5% by volume of trypsin (PAA, Pasching, Austria), incubation was continued for 10 minutes at 37° C. After complete incubation, the enzyme solution was carefully pipetted off and 500 μL of complete medium were added to each of the remaining DRG. The DRG were in each case suspended several times, drawn through cannulae No. 1, No. 12 and No. 16 using a syringe and transferred to a 50 mL Falcon tube which was filled up to 15 mL with complete medium. […]

In the next assay the target is T2, vanilloid receptor (VR1) (Homo sapiens, UniProt Q8NER1).
T2 construct: expressed in transfected cells; host or cells: CHO K1 cells (ECACC), stably transfected
Nature of the assay: Functional testing on vanilloid receptor (VR1): FLIPR Ca2+ inflow assay in CHO K1 cells stably transfected with the VR1 gene. It counts as cell-based. The following applies: for inhibition at 10 µM: CHO-K1, inhibition compared to 10 μM CP (capsaicin); for activation at 10 µM: CHO-K1, stimulation compared to 10 μM CP (capsaicin). The text has this: II. Functional Testing Carried Out on the Vanilloid Receptor (VR1)
The agonistic or antagonistic effect of the substances to be tested can also be determined on the vanilloid receptor (VR1) using the following assay. According to this assay, the Ca^2+ inflow is quantified through the channel using a Ca^2+-sensitive dye (type Fluo-4, Molecular Probes Europe BV, Leiden, Netherlands) in a fluorescent imaging plate reader (FLIPR, Molecular Devices, Sunnyvale, USA).
Chinese hamster ovary cells (CHO K1 cells, European Collection of Cell Cultures (ECACC) United Kingdom) were stably transfected with the VR1 gene. For functional testing, these cells were plated out on poly-D-lysine-coated black 96 well plates having a clear base (BD Biosciences, Heidelberg, Germany) at a density of 25,000 cells/well. The cells were incubated overnight at 37° C. and 5% CO2 in a culture medium (Ham's F12 nutrient mixture, 10% by volume of FCS (foetal calf serum), 18 μg/ml L-proline). The next day the cells were incubated with Fluo-4 (Fluo-4 2 μM, 0.01% by volume of Pluronic F127, Molecular Probes in HBSS (Hank's buffered saline solution), Gibco Invitrogen GmbH, Karlsruhe, Germany) for 30 minutes at 37° C. Subsequently, the plates were washed 3 times with HBSS buffer and after further incubation for 15 minutes at room temperature used for Ca^2+ measurement in a FLIPR assay. The Ca^2+-dependent fluorescence was measured before and after the addition of the substances to be tested (λex wavelength=488 nm, λem=540 nm). Quantification was carried out by measuring the highest fluorescence intensity (FC, Fluorescence Counts) over time.
The FLIPR protocol consists of 2 substance additions. First the compounds to be tested (10 μM) were pipetted onto the cells and the Ca^2+ inflow was compared with the control (capsaicin 10 μM) (% activation based on the Ca^2+ signal after the addition of 10 μM capsaicin). After 5 minutes' incubation, 100 nM of capsaicin were administered and the Ca^2+ inflow was also determined.
Desensitising agonists and antagonists led to suppression of the Ca^2+ inflow. The % inhibition was calculated compared to the maximum achievable inhibition with 10 μM of capsaicin.

T2 sequence (Q8NER1 whole entry): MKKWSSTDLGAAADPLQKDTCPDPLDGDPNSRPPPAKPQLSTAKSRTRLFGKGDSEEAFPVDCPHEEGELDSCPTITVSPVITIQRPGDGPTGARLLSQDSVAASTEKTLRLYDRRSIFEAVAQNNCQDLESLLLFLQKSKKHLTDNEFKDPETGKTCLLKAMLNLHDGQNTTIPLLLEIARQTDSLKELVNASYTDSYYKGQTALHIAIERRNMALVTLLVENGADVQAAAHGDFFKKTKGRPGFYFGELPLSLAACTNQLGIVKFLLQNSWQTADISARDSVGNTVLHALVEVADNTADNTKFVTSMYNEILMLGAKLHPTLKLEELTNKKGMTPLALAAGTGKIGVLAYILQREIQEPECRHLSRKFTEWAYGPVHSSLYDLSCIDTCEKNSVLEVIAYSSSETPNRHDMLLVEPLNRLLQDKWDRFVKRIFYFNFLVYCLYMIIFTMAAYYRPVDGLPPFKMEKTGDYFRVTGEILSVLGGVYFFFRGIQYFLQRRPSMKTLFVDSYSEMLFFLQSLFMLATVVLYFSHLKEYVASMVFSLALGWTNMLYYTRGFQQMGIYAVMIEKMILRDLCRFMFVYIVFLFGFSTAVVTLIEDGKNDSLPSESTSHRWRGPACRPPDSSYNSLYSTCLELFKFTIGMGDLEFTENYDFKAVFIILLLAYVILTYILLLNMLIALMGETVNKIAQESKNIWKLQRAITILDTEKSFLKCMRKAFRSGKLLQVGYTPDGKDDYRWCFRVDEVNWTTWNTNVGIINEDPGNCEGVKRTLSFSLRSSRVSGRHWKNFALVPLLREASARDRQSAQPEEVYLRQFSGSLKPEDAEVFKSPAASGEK
T1 sequence (O35433 whole entry): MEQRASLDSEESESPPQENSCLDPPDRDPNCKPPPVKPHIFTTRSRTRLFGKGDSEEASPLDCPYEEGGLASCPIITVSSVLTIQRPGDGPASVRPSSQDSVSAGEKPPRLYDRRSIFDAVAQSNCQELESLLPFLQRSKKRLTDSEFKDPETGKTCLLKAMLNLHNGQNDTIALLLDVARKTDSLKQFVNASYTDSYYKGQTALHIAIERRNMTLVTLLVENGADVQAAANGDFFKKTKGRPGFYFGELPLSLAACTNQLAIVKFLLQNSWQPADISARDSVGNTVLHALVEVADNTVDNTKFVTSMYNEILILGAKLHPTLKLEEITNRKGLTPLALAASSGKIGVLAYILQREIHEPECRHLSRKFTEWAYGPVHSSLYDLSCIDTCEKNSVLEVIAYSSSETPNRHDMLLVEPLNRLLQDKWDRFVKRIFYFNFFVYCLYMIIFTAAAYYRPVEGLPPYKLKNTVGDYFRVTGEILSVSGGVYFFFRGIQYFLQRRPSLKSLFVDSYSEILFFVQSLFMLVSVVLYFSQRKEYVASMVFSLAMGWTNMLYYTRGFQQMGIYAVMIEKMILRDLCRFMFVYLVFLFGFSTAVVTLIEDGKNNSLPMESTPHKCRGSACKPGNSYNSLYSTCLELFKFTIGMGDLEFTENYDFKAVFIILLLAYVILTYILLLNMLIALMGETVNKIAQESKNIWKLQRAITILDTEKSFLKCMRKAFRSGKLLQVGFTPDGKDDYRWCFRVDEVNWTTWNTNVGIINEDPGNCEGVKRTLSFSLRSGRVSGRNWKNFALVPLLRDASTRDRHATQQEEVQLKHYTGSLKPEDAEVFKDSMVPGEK

The inhibition is the drop in the measured response relative to a control, in per cent. Consider `Cc1ccc(C2=NOC3(CCN(C(=O)Nc4ccc(C(C)(C)C)cc4)CC3)C2)cc1` [Compound 144, 3-p-tolyl-1-oxa-2,8-diazaspiro[4.5]dec-2-ene-8-carboxylic acid-(4-tert-butylphenyl)amide], for which, in assay [1], the inhibition at 10 µM worked out at 94.5% and the activation at 10 µM is -0.43%. In addition, at vanilloid receptor (VR1), the inhibition at 10 µM is -16.6% and the activation at 10 µM was -0.18%.

Turning to `COc1cccc(C2=NOC3(CCN(C(=O)Nc4ccc(C)cc4)CC3)C2)c1` [Compound 146, 3-(3-methoxyphenyl)-1-oxa-2,8-diazaspiro[4.5]dec-2-ene-8-carboxylic acid p-tolylamide], the values for the inhibition at 10 µM (in assay [1]; on vanilloid receptor (VR1)) were 58% and 9.95%, respectively. The activation at 10 µM in assay [1] was -0.13%; on vanilloid receptor (VR1) it was 0.29%.

For the compound `CC(C)(C)c1ccc(/C=C/C(=O)N2CCC3(CC2)CC(c2cccc(F)c2)=NO3)cc1` [Compound 353, (E)-3-(4-tert-butylphenyl)-1-(3-(3-fluorophenyl)-1-oxa-2,8-diazaspiro[4.5]dec-2-en-8-yl)prop-2-en-1-one], in assay [1], the inhibition at 10 µM was 84% and the activation at 10 µM came to 0%. At vanilloid receptor (VR1), the inhibition at 10 µM was found to be 23% and the activation at 10 µM amounted to 0%.

For `CC(C)(C)c1ccc(NC(=O)N2CCC3(CC2)CC(c2cccc(Cl)c2)=NO3)cc1` [Compound 333, N-(4-tert-butylphenyl)-3-(3-chlorophenyl)-1-oxa-2,8-diazaspiro[4.5]dec-2-ene-8-carboxamide], in assay [1], the inhibition at 10 µM was determined as 101% and the activation at 10 µM stood at 9%. Besides, on vanilloid receptor (VR1), the inhibition at 10 µM turned out to be 29% and the activation at 10 µM was 8%.

Turning to `O=C(Nc1cccc(C(F)(F)F)c1)N1CCC2(CC1)CC(c1ccccc1)=NO2` [Compound 90, 3-phenyl-1-oxa-2,8-diazaspiro[4.5]dec-2-ene-8-carboxylic acid-(3-trifluoromethylphenyl)amide], the inhibition at 10 µM was 55.9% in assay [1] and -7.62% at vanilloid receptor (VR1). In addition, the activation at 10 µM was -0.47% in assay [1] and -0.15% on vanilloid receptor (VR1).

Broadly, the IC50 is the concentration at which inhibition is half-maximal. A high value points to weaker potency. `CC1CN(C(=O)Nc2ccc(C(F)(F)F)cc2)CCC12CC(c1ccccc1)=NO2` (centres unmarked) [Compound 385, 6-methyl-3-phenyl-N-(4-(trifluoromethyl)phenyl)-1-oxa-2,8-diazaspiro[4.5]dec-2-ene-8-carboxamide]: in assay [1], the IC50 came out at 0.0598 µM, the inhibition at 10 µM came to 77% and the activation at 10 µM was determined as 1%. Moreover, on vanilloid receptor (VR1), the inhibition at 10 µM came to 18% and the activation at 10 µM is -2%.

Consider `Cc1ccc(C2=NOC3(CCN(C(=S)NC4CCCC4)CC3)C2)cc1` [Compound 290, 3-p-tolyl-1-oxa-2,8-diazaspiro[4.5]dec-2-ene-8-thiocarboxylic acid cyclopentylamide], for which the inhibition at 10 µM in assay [1] is 48.4%; against vanilloid receptor (VR1) it was -7.84%. In addition, the activation at 10 µM in assay [1] was -0.47%; at vanilloid receptor (VR1) it was -0.28%.

As for `COc1cccc(C2=NOC3(CCN(C(=O)Nc4ccc(C(C)C)cc4)CC3)C2)c1` [Compound 77, 3-(3-methoxyphenyl)-1-oxa-2,8-diazaspiro[4.5]dec-2-ene-8-carboxylic acid-(4-isopropylphenyl)amide], in assay [1], the inhibition at 10 µM came out at 95.4% and the activation at 10 µM was found to be 3.81%. Also, on vanilloid receptor (VR1), the inhibition at 10 µM turned out to be 5.49% and the activation at 10 µM worked out at 0.1%.

For `COc1ccc(NC(=O)N2CCC3(CC2)CC(c2cccc(OC)c2)=NO3)cc1` [Compound 47, 3-(3-methoxyphenyl)-1-oxa-2,8-diazaspiro[4.5]dec-2-ene-8-carboxylic acid-(4-methoxyphenyl)amide], the inhibition at 10 µM in assay [1] came to 48.3%; at vanilloid receptor (VR1), 11.4%. The activation at 10 µM in assay [1] was determined as 0.92%; at vanilloid receptor (VR1), 0.01%.

As to `CC1CN(C(=O)Nc2ccc(C(C)(C)C)cc2)CCC12CC(c1ccccc1)=NO2` (centres unmarked) [Compound 369, N-(4-tert-butylphenyl)-6-methyl-3-phenyl-1-oxa-2,8-diazaspiro[4.5]dec-2-ene-8-carboxamide], in assay [1], the IC50 amounted to 0.175 µM, the inhibition at 10 µM was determined as 110% and the activation at 10 µM was 0%. Besides, at vanilloid receptor (VR1), the inhibition at 10 µM was 19% and the activation at 10 µM was -1%. At vanilloid receptor (VR1) (capsaicin (CAP) stimulus, average), this compound gave an IC50 of 1.07 µM.

As to `CC(C)(C)c1ccc(NC(=O)N2CCC3(CC2)CC(c2ccccc2)=NO3)cc1` [Compound 141, 3-phenyl-1-oxa-2,8-diazaspiro[4.5]dec-2-ene-8-carboxylic acid-(4-tert-butylphenyl)amide], in assay [1], half-maximal inhibition (IC50) required 0.078 µM, the inhibition at 10 µM was found to be 98.5% and the activation at 10 µM stood at 0.42%. Besides, at vanilloid receptor (VR1), the inhibition at 10 µM stood at 20.4% and the activation at 10 µM is -0.3%.

For the compound `CC1CN(C(=O)Nc2ccc(C(C)(C)C)cc2)CCC12CC(c1ccccc1F)=NO2` (centres unmarked) [Compound 364, N-(4-tert-butylphenyl)-3-(2-fluorophenyl)-6-methyl-1-oxa-2,8-diazaspiro[4.5]dec-2-ene-8-carboxamide], in assay [1], the inhibition at 10 µM was 106% and the activation at 10 µM amounted to 4%. Also, on vanilloid receptor (VR1), the inhibition at 10 µM came to 50% and the activation at 10 µM was -1%.

With `O=C(/C=C/c1ccc(C(F)(F)F)nc1N1CCCCC1)N1CCC2(CC1)CC(c1cccc(F)c1)=NO2` [Compound 365, (E)-1-(3-(3-fluorophenyl)-1-oxa-2,8-diazaspiro[4.5]dec-2-en-8-yl)-3-(2-(piperidin-1-yl)-6-(trifluoromethyl)pyridin-3-yl)prop-2-en-1-one], the inhibition at 10 µM turned out to be 94% in assay [1] and 74% against vanilloid receptor (VR1). The activation at 10 µM in assay [1] is 0%; on vanilloid receptor (VR1), -1%.

Source of the values: patent US8772307B2, “Substituted spiro compounds and their use for producing pain-relief medicaments” (Gruenenthal GmbH, priority 2005, dated 2014).
